Source: US20190064146A1, “IMMUNE CELLS HAVING INCREASED IMMUNITY OR RESISTANCE TO AN IMMUNOSUPPRESSIVE CYTOKINE AND USE OF THE SAME” (Innate Tumor Immunity, INC., priority 2015, published 2019)

Test system: EG.7 tumor cells
Experiment: Adoptive transfer of in vitro activated OT-1 CD8+ T cells into mice with established EG.7 flank tumors
Assay type: in vivo
Settings: OT-1 splenocytes activated with OVA antigen 1 μg/mL plus TGF-β 10 ng/mL and IL-1β 10 ng/mL for 5 days; 5×10^6 CD8+ cells intraperitoneally into C57BL/6J mice with 7-day EG.7 tumors
Method: To induce tumor, 1×10^6 EG.7 tumor cells, which expressed the OVA antigen, were injected subcutaneously on the flank of Black/6 mice. In this condition, after 7 days EG.7 cells from palpable tumors. To generate anti-tumor T cells, splenocytes from OT-1 mice, which have a transgenic TCR that recognize OVA antigen, were activated with OVA antigen (1 μg/mL) in the presence of TGF-β, or the presence of TGF-β and IL-1β. After 5 days CD8^+ cells were purified. […] Tumor volume was recorded 3 times a week until the end of the study. […]
OT-1 mice were anesthetized and spleens were harvested and strained through a 70-um filter with PBS with 10% FBS. […] After washing, cells were counted and placed in tissue culture at a final concentration of 1×10^6 cells/mL. […]
Tumors were established with subcutaneous flank injections of 1×10^6 cells suspended in 100 μL PBS. Tumors were measured three times a week and volumes were estimated using the formula 3.14×[largest diameter×(perpendicular diameter)^2]/6. […]
The average tumor volumes of the combination treatment group over time was plotted and compared to control treated with vehicle. […] For statistical comparisons, Two-Way Anova with Bonferroni correction was calculated with GaphPrism software.

Substance: IL-1β: exemplary NLRP3 activator; cytokine interleukin-1β added to T cell culture
- CD8+ antitumor activity against established cancer (tumor volume): promotes CD8^+ antitumor activity against established cancer
